The source of these data is BindingDB's records for doi:10.1128/aac.40.5.1304 (Merck Research Laboratories, 1996).

For this assay, the target named is Polymerase acidic protein (Influenza A virus (strain A/Puerto Rico/8/1934 H1N1), UniProt P03433). The experiment in a line: Inhibition of Influenza replication.

One may read the IC50 as the concentration that gives 50% inhibition. A high value points to a need for much substance. For the compound `O=C(O)C(=O)CC(=O)C1(Cc2ccc(Cl)cc2)CCN(Cc2ccc(Cl)cc2)CC1`, the midpoint of inhibition, the IC50, lay at 180 nM.

`O=C(O)C(=O)CC(=O)C1(Cc2ccc(Cl)cc2)CCCN(Cc2ccccc2)C1` (configuration not stated) returned an IC50 of 1600 nM.
